Data set [1] concerns the target T1, ATP-dependent translocase ABCB1 (Rattus norvegicus, UniProt P43245). Nature of the data set: TP_TRANSPORTER: Western blot, primary hepatocytes. In kind it is functional, cell-based, Hepatocyte.
The target in data set [2] is T1, ATP-dependent translocase ABCB1. Nature of the data set: TP_TRANSPORTER: Northern blot from primary hepatocytes. In kind it is functional, cell-based, Hepatocyte.

T1 sequence (P43245 whole entry): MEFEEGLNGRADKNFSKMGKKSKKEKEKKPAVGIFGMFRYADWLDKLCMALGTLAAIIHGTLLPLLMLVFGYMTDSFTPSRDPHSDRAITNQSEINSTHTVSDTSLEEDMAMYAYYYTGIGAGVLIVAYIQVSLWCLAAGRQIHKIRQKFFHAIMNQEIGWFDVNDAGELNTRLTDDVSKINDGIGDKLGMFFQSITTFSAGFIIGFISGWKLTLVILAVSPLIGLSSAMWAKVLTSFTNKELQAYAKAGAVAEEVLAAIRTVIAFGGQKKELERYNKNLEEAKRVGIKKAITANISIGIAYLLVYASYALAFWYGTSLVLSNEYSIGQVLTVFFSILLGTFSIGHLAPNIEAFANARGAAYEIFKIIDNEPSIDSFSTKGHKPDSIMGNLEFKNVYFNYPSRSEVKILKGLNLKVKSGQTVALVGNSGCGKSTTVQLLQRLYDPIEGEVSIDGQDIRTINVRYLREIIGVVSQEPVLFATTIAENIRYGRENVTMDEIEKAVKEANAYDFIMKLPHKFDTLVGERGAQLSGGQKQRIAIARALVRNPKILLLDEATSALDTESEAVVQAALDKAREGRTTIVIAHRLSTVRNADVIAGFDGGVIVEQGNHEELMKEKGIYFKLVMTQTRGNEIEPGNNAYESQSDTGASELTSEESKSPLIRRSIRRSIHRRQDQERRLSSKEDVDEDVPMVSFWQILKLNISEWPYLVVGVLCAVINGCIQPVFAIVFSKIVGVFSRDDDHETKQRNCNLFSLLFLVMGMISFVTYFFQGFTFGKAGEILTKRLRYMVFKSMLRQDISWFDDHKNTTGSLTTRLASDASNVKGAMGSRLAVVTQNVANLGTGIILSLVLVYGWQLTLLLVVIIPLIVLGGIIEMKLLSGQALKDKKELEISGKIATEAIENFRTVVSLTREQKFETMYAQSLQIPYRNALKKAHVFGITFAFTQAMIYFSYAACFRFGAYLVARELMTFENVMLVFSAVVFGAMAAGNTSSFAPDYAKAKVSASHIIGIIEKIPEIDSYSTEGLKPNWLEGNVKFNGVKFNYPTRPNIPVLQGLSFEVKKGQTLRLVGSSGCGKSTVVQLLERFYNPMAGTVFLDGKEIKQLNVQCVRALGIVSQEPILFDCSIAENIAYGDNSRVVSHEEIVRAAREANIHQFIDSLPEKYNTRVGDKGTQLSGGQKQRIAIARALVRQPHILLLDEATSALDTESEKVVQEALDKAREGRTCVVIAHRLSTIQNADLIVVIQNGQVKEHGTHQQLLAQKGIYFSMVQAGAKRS

As for `C[C@@H]1C[C@H]2[C@@H]3CCC4=CC(=O)C=C[C@]4(C)[C@@]3(F)[C@@H](O)C[C@]2(C)[C@@]1(O)C(=O)CO` [DEXAMETHASONE], the Activity entry in data set [1] and in data set [2] was “inducer [Decrease]” in each case.

The record behind these values is ChEMBL document CHEMBL2074099, “Divergent regulation of the class II P-glycoprotein gene in primary cultures of hepatocytes versus H35 hepatoma by glucocorticoids” (Cell Growth Differ, 1995).
